The record followed here is ChEMBL document CHEMBL1201862, “PubChem BioAssay data set” (2004).

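Five concentrations, 48 hours, 96-well plates. GI50 = concentration required for 50% inhibition of growth.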 Active and inactive are the calls of the source. Cut-off read from the data, not from the text of the source: active = GI50 up to about 1.1 µM and inactive = higher.

Test systems include UACC-62; IGROV-1; MCF7; ACHN; OVCAR-8; CAKI-1; 786-0; SF-295; U-251; Malme-3M; RXF 393; A549; K562; KM12; M14; HT-29; SK-MEL-5; SNB-75; BT-549; HOP-92.
What all share (test): NCI anticancer screen, dose series, 48 h

For `Cc1ccc2nc(CC(=O)c3ccc4ccccc4c3)c(O)nc2c1`, the GI50 with UACC-62, with IGROV-1, in the test on MCF7, in the test with ACHN, with OVCAR-8 and with CAKI-1 was > 100 µM (inactive) in each case. The GI50 in the test on 786-0, with SF-295, in the test on U-251, in the test with Malme-3M, with RXF 393 and with A549 was > 100 µM (inactive) in each case. Besides, the GI50 in the test on K562 is > 100 µM (inactive); in the test with KM12, > 100 µM (inactive); with M14, > 100 µM (inactive); with HT-29 it was 66.2 µM (inactive); with SK-MEL-5, > 100 µM (inactive); in the test on SNB-75, > 100 µM (inactive). Further, the GI50 in the test with BT-549 and in the test with HOP-92 was > 100 µM (inactive) each time.
As to `Nn1c(CCCCCCCCc2nnc(COc3ccc(Cl)cc3)n2N)nnc1COc1ccc(Cl)cc1`, the GI50 was > 100 µM (inactive) in the test with UACC-62; > 100 µM (inactive) in the test on IGROV-1; > 100 µM (inactive) in the test on MCF7; > 100 µM (inactive) in the test with ACHN; 16.9 µM (inactive) with CAKI-1; > 100 µM (inactive) in the test on 786-0. The GI50 in the test with SF-295, with U-251, in the test on Malme-3M, with RXF 393, with A549 and with K562 was > 100 µM (inactive) each time. Besides, the GI50 with KM12, in the test with M14, in the test on HT-29, in the test on SK-MEL-5, in the test on SNB-75 and with BT-549 was > 100 µM (inactive) in each case. In the test with HOP-92, the GI50 is > 100 µM (inactive).
With `CC/C(Cl)=N\OC(=O)Nc1ccc(C#N)cc1`, the GI50 in the test on UACC-62 is 15 µM (inactive); in the test on IGROV-1, 16.4 µM (inactive); in the test with MCF7, 15.1 µM (inactive); in the test on ACHN it was 14.3 µM (inactive); in the test on OVCAR-8 it was 16.9 µM (inactive); in the test on CAKI-1, 5.04 µM (inactive). Moreover, the GI50 in the test on 786-0 was 11.2 µM (inactive); in the test on SF-295, 18.7 µM (inactive); with U-251 it was 17.1 µM (inactive); with Malme-3M, 4.11 µM (inactive); in the test with RXF 393, 8.75 µM (inactive); with A549, 18.2 µM (inactive). In addition, the GI50 with K562 was 1.86 µM (inactive); in the test on KM12 it was 17.1 µM (inactive); with M14, 12.3 µM (inactive); with HT-29 it was 18.6 µM (inactive); in the test with SK-MEL-5, 12.9 µM (inactive); in the test on SNB-75, 14.9 µM (inactive). The GI50 in the test on BT-549 was 15.1 µM (inactive); in the test with HOP-92, 3.15 µM (inactive).
`c1ccc2c(c1)Cn1c-2nc2ccccc21`: the GI50 is > 100 µM (inactive) in the test on UACC-62; > 100 µM (inactive) with IGROV-1; > 100 µM (inactive) in the test with MCF7; 96.6 µM (inactive) in the test on ACHN; > 100 µM (inactive) in the test on OVCAR-8; > 100 µM (inactive) in the test on CAKI-1. Besides, the GI50 in the test with 786-0 is > 100 µM (inactive); in the test on SF-295 it was > 100 µM (inactive); in the test on U-251 it was > 100 µM (inactive); with Malme-3M it was 76 µM (inactive); in the test on RXF 393, 82 µM (inactive); with A549, 67.6 µM (inactive). The GI50 in the test on K562 was > 100 µM (inactive); with KM12, > 100 µM (inactive); with M14, > 100 µM (inactive); in the test with HT-29, > 100 µM (inactive); in the test on SK-MEL-5, 42.4 µM (inactive); in the test with SNB-75, < 0.01 µM (active). The GI50 in the test on BT-549 and in the test on HOP-92 was > 100 µM (inactive) each time.
For the compound `Cc1cccc(/N=N/C(=N\NC(=O)c2cc(Cl)ccc2O)c2ccc(N(CCC#N)CCC#N)cc2C)c1`, the GI50 in the test on UACC-62 is 24 µM (inactive); in the test on IGROV-1 it was 14.6 µM (inactive); in the test with MCF7 it was 32.2 µM (inactive); in the test with ACHN, 34.7 µM (inactive); in the test with OVCAR-8 it was 31.3 µM (inactive); in the test on CAKI-1, 30.6 µM (inactive). The GI50 was 38.5 µM (inactive) in the test on 786-0; 40.3 µM (inactive) in the test on SF-295; 36.1 µM (inactive) in the test on U-251; 28.1 µM (inactive) in the test on Malme-3M; 30.4 µM (inactive) in the test with RXF 393; 26.5 µM (inactive) in the test on A549. Further, the GI50 is 33.3 µM (inactive) in the test with K562; 27.2 µM (inactive) with KM12; 45.5 µM (inactive) with M14; 28.3 µM (inactive) in the test with HT-29; 34 µM (inactive) in the test on SK-MEL-5; 37.9 µM (inactive) in the test with SNB-75. Further, the GI50 was 24.2 µM (inactive) in the test with BT-549 and 23.8 µM (inactive) in the test with HOP-92.
With `COc1ccc(-c2c3c(n(C4OC(CO)C(O)C(O)C4O)c(=S)c2C#N)CC(C)(C)CC3=O)cc1` (configuration not stated), the GI50 is 97.3 µM (inactive) in the test on UACC-62; > 100 µM (inactive) in the test with IGROV-1; > 100 µM (inactive) in the test on MCF7; > 100 µM (inactive) in the test with ACHN; > 100 µM (inactive) in the test on OVCAR-8; > 100 µM (inactive) in the test with CAKI-1. The GI50 with 786-0, in the test on SF-295, with U-251, in the test on Malme-3M, with RXF 393 and in the test with A549 was > 100 µM (inactive) in each case. The GI50 is > 100 µM (inactive) with K562; > 100 µM (inactive) with KM12; > 100 µM (inactive) in the test with M14; > 100 µM (inactive) in the test with HT-29; > 100 µM (inactive) with SK-MEL-5; 96.6 µM (inactive) in the test with SNB-75. Further, the GI50 in the test with BT-549 and in the test on HOP-92 was > 100 µM (inactive) throughout.
On to `CSc1nc(NC2OC(COC(C)=O)C(OC(C)=O)C(OC(C)=O)C2OC(C)=O)c(/N=C\C=N/c2c(NC3OC(COC(C)=O)C(OC(C)=O)C(OC(C)=O)C3OC(C)=O)nc(SC)n(C)c2=O)c(=O)n1C` (configuration not stated), for which the GI50 is > 94.8 µM (inactive) in the test with UACC-62; 65.8 µM (inactive) with IGROV-1; > 100 µM (inactive) in the test on MCF7; 83.9 µM (inactive) with ACHN; 73.8 µM (inactive) in the test with OVCAR-8; > 7.23 µM (inactive) in the test on CAKI-1. Moreover, the GI50 in the test on 786-0 was 34 µM (inactive); in the test on SF-295, 33.3 µM (inactive); in the test with U-251 it was 41.2 µM (inactive); with Malme-3M it was 81.5 µM (inactive); in the test on RXF 393 it was 17.9 µM (inactive); in the test on A549, > 100 µM (inactive). Besides, the GI50 in the test with K562 was > 100 µM (inactive); in the test on KM12, > 100 µM (inactive); in the test on M14, > 4.65 µM (inactive); in the test on HT-29, > 82.2 µM (inactive); in the test on SK-MEL-5, > 100 µM (inactive); with SNB-75 it was 12.2 µM (inactive). The figures for the GI50 in the test with BT-549 and with HOP-92 were > 65.6 µM (inactive) and 25.9 µM (inactive), respectively.
For `COc1cc(CSc2ccc(O)cc2)cc(O)c1O`, the GI50 is 22.8 µM (inactive) in the test on UACC-62; 35.3 µM (inactive) with IGROV-1; 17.6 µM (inactive) with MCF7; 28.1 µM (inactive) with ACHN; 26.2 µM (inactive) with OVCAR-8; 28 µM (inactive) with CAKI-1. The GI50 in the test with 786-0 was 36.2 µM (inactive); in the test on SF-295 it was 23.2 µM (inactive); in the test with U-251 it was 28.8 µM (inactive); with Malme-3M it was 37.6 µM (inactive); in the test with RXF 393, 50.6 µM (inactive); in the test on A549 it was 46.7 µM (inactive). Also, the GI50 in the test with K562 was 31.6 µM (inactive); in the test on KM12, 25.9 µM (inactive); in the test on M14 it was 20.5 µM (inactive); in the test on HT-29 it was 22.2 µM (inactive); in the test on SK-MEL-5, > 10 µM (inactive); with SNB-75, 32.1 µM (inactive). The GI50 in the test with BT-549 was 18.3 µM (inactive); with HOP-92, 22.7 µM (inactive).
For `O=C(NCCCCCCNC(=O)c1cc(-c2ccccc2)nc2ccccc12)c1cc(-c2ccccc2)nc2ccccc12`, the GI50 in the test with UACC-62 is > 100 µM (inactive); in the test with IGROV-1, 34.8 µM (inactive); in the test with MCF7, > 100 µM (inactive); with ACHN, > 100 µM (inactive); in the test with OVCAR-8, > 100 µM (inactive); in the test with CAKI-1 it was > 100 µM (inactive). Besides, the GI50 in the test on 786-0 was 31.6 µM (inactive); in the test with SF-295, 84.7 µM (inactive); with U-251 it was 88.3 µM (inactive); in the test on Malme-3M, > 100 µM (inactive); with RXF 393, > 100 µM (inactive); in the test with A549, > 100 µM (inactive). For the same compound, the GI50 in the test on K562 is > 100 µM (inactive); in the test with M14 it was > 100 µM (inactive); in the test on HT-29 it was > 100 µM (inactive); in the test on SK-MEL-5, > 100 µM (inactive); with SNB-75, 33.3 µM (inactive); in the test on BT-549, > 100 µM (inactive). Moreover, the GI50 in the test on HOP-92 was > 100 µM (inactive).
In the case of `O=C1c2ccccc2C(=O)c2c1ccc1c2OCO1`, the GI50 in the test with UACC-62 is > 100 µM (inactive); in the test with IGROV-1, > 100 µM (inactive); in the test with MCF7 it was > 100 µM (inactive); in the test with ACHN, > 10 µM (inactive); with OVCAR-8, > 100 µM (inactive); in the test on CAKI-1, > 100 µM (inactive). Moreover, the GI50 with 786-0, in the test with SF-295, with U-251, with Malme-3M, with RXF 393 and in the test on A549 was > 100 µM (inactive) each time. The GI50 in the test with KM12 was > 100 µM (inactive); with M14, > 100 µM (inactive); in the test on HT-29, > 100 µM (inactive); in the test on SK-MEL-5 it was > 100 µM (inactive); with SNB-75 it was 23.1 µM (inactive); with BT-549, > 100 µM (inactive). Further, the GI50 in the test with HOP-92 is > 100 µM (inactive).
